Laboratory results published in patent US8344118B2, “Preparation and isolation of 5′ capped MRNA” (Applied Biosystems, LLC, priority 2007, dated 2013).

Legend:
T7 RNA polymerase = T7 RNA polymerase (Escherichia phage T7, UniProt P00573); conditions: linearized pTri β actin vector template, 37° C. for 2 hr, 20% dPAGE gel, FIG. 9
Experimental: A Gel Shift assay was performed by using the MAXIscript™ kit (Ambion, Inc.) following the manufacturer's protocol. The assay determines if the modified cap analogs were substrates for T7 RNA polymerase. Typical 20 μL of T7 RNA polymerase transcriptions contained the following reagents at the final concentrations indicated: linearized pTri β actin vector template, 0.5 μg; ATP, 2 mmol; GTP, 0.4 mmol; 1.6 mmol each CTP and UTP, in a separate reaction; 10× reaction buffer, 4×; T7 RNA polymerase, 50 units/μL; (α-^32P) ATP, 800 (Ci/mmol); and DEPC water. The control reaction was a normal in vitro transcription reaction, in which no cap analog was added. The transcription reactions were incubated at 37° C. for 2 hr, after which the reaction mixtures were then applied to a 20% dPAGE gel. The assay detects specific structure or size changes described as gel shifts. When structure change or size change occurs it creates complexes that migrate slower during gel electrophoresis than the original complex.

[1] = test system: phage RNA polymerase such as T7, T3 or SP6; conditions: m^7GpppG to GTP (4:1); cited from earlier work

Chain of T7 RNA polymerase (P00573 whole entry): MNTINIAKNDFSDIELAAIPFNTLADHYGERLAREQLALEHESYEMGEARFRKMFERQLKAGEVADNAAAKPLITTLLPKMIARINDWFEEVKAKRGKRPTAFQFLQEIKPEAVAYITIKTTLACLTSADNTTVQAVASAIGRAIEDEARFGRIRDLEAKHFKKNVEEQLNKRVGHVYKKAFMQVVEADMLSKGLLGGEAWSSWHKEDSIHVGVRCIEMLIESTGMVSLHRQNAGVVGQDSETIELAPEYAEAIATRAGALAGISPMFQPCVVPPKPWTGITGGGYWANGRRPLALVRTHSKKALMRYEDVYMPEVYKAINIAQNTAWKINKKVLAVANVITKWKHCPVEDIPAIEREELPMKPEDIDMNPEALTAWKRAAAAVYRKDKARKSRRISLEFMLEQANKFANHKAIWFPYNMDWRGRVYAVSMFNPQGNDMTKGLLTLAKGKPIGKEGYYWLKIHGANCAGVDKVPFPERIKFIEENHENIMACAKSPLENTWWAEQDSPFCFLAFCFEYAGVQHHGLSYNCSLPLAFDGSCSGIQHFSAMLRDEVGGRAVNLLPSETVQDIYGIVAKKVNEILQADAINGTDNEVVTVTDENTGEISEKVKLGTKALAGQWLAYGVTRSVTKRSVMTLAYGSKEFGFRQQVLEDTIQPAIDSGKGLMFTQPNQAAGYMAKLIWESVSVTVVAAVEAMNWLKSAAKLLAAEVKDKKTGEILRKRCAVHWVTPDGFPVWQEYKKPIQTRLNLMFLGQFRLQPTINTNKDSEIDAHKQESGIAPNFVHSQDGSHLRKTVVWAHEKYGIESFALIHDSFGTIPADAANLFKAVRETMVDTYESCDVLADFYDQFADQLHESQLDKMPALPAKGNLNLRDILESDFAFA

Row | SMILES | capped RNA (T7 RNA polymerase) | capped RNA [1] [%]
1 | NCC=Cc1cn(C2OC(COP(=O)(O)OP(=O)(O)OP(=O)(O)OP(=O)(O)OCC3OC(n4cnc5c(=O)[nH]c(N)nc54)C(O)C3O)C(O)C2O)c(=O)[nH]c1=O (centres unmarked) [Compound 1, G[5′]pppp[5′]U-Aminoallyl] | about 65% | –
2 | Cn1c[n+]([C@@H]2O[C@H](COP(=O)(O)OP(=O)(O)OP(=O)(O)OC[C@H]3O[C@@H](n4cnc5c(=O)[nH]c(N)nc54)[C@H](O)[C@@H]3O)[C@@H](O)[C@H]2O)c2nc(N)[nH]c(=O)c21 [m^7GpppG, m^7G(5′)ppp(5′)G] | – | 80
